Laboratory results reported in ChEMBL document CHEMBL3880391, “Tetrahydroquinoline derivatives as glycine antagonists” (2002).

Tests used:
[1] = Toxicity in orally dosed mouse assessed as induction of untoward effects; format: organism-based; conditions: in vivo, po
Mus musculus = assay: Analgesic activity in mouse assessed as inhibition of formalin-induced pain by measuring time spent licking injected paw for first 5 minutes (early phase) and from 20 to 60 mins (late phase) administered orally 1 hr before formalin injection by formalin test; format: functional

| Structure (SMILES) | Activity [1] | ED50 (Mus musculus) [mg/kg] | ED50 (Mus musculus; Mus musculus, po, read-out: ED50) [mg/kg] |
| --- | --- | --- | --- |
| O=C([O-])C1C/C(=C2/NC(=O)N(c3ccccc3)C2=O)c2ccc(Cl)cc2N1.[Na+] (racemic) | Non-Toxic |  |  |
| O=C([O-])C1C/C(=C2/CCN(c3ccccc3)C2=O)c2c(Cl)cc(Cl)cc2N1.[Na+] (centres undefined) | Non-Toxic |  |  |
| CC(=O)Nc1ccc(N2CC/C(=C3\CC(C(=O)O)Nc4cc(Cl)ccc43)C2=O)cc1 (racemic) | Non-Toxic |  |  |
| O=C([O-])C1CC(C2=CCN(c3ccccc3)C2=O)c2ccc(Cl)cc2N1.[Na+] (single isomer, unassigned) |  | 0.3 |  |
| O=C([O-])C1CC(C2=CCN(c3ccccc3)C2=O)c2c(Cl)cc(Cl)cc2N1.[Na+] (racemic) | Non-Toxic |  |  |
| O=C([O-])C1C/C(=C2\CCN(c3cccnc3)C2=O)c2ccc(Cl)cc2N1.[Na+] (racemic) | Non-Toxic |  |  |
| O=C([O-])C1CC(C2=CCN(c3cccnc3)C2=O)c2ccc(Cl)cc2N1.[Na+] (racemic) | Non-Toxic |  |  |
| O=C([O-])C1CC(C2=CCCN(c3ccccc3)C2=O)c2ccc(Cl)cc2N1.[Na+] (racemic) | Non-Toxic |  |  |
| O=C([O-])C1CC(C2=CCN(c3ccccc3)C2=O)c2ccc(Cl)cc2N1.[Na+] (single isomer, unassigned; (-)) |  | 0.03 |  |
| O=C([O-])C1CC(C2=CCN(c3ccccc3)C2=O)c2ccc(Cl)cc2N1.[Na+] (racemic) | Non-Toxic |  |  |
| CS(=O)(=O)Nc1ccc(N2CC=C(C3CC(C(=O)[O-])Nc4cc(Cl)ccc43)C2=O)cc1.[Na+] (racemic) | Non-Toxic |  |  |
| CC(=O)Nc1ccc(N2CC=C(C3CC(C(=O)O)Nc4cc(Cl)ccc43)C2=O)cc1 (racemic) | Non-Toxic |  |  |
| O=C([O-])C1C/C(=C2\CCN(c3ccccc3)C2=O)c2ccc(Cl)cc2N1.[Na+] (single isomer, unassigned; (-)) | Non-Toxic |  | 0.14 |
